For orientation: IC50 means the concentration that gives 50% inhibition. A lower IC50 goes with inhibition by little substance.

Some targets named below: RSK3 (Homo sapiens, UniProt Q15349); RSK4 (Homo sapiens, UniProt Q9UK32); RSK2 (Homo sapiens, UniProt P51812).
Assay in all cases: KINOMEscan panel
Holding throughout (format): biochemical

The target of assay [1] is RSK1 (ribosomal protein S6 kinase A1) (Homo sapiens, UniProt Q15418).
Sequence of RSK1 (ribosomal protein S6 kinase A1) (Q15418 whole entry): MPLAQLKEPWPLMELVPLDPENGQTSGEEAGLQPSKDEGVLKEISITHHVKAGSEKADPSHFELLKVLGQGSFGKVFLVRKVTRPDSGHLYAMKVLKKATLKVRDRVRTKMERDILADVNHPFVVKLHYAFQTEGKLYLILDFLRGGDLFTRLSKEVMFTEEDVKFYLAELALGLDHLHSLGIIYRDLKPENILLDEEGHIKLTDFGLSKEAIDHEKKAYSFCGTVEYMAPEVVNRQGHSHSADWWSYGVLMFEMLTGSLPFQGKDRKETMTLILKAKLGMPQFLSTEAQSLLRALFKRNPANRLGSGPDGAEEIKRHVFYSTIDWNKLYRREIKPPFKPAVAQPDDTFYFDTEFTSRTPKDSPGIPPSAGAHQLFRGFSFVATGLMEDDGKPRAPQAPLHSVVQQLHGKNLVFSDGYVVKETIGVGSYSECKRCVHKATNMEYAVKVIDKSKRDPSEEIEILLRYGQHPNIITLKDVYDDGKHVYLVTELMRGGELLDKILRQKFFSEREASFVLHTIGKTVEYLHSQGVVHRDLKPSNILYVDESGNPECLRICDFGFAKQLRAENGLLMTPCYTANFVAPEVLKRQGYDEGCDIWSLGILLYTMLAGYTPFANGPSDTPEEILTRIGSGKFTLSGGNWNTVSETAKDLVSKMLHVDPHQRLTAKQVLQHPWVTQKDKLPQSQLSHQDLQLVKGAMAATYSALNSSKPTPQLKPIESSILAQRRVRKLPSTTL

Sequence of RSK2 (P51812 whole entry): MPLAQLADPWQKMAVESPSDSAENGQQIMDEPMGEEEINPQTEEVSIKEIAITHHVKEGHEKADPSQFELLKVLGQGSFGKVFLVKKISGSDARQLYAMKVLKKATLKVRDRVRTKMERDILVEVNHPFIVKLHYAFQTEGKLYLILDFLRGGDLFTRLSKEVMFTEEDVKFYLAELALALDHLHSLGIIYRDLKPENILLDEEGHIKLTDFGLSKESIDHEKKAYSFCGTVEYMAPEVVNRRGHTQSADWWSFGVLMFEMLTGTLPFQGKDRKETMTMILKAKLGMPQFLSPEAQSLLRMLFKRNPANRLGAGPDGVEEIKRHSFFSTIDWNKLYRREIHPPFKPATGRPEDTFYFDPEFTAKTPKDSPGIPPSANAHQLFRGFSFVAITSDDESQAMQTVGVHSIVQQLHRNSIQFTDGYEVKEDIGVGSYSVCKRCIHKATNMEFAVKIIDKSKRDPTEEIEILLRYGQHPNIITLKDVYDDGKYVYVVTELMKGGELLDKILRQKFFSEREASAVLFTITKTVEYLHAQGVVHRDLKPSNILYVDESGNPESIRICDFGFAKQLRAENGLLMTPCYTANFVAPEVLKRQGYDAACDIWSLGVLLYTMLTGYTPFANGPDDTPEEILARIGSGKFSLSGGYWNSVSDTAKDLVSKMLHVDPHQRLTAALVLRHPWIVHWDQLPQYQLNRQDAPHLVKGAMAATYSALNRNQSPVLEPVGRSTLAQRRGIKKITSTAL
Sequence of RSK4 (Q9UK32 whole entry): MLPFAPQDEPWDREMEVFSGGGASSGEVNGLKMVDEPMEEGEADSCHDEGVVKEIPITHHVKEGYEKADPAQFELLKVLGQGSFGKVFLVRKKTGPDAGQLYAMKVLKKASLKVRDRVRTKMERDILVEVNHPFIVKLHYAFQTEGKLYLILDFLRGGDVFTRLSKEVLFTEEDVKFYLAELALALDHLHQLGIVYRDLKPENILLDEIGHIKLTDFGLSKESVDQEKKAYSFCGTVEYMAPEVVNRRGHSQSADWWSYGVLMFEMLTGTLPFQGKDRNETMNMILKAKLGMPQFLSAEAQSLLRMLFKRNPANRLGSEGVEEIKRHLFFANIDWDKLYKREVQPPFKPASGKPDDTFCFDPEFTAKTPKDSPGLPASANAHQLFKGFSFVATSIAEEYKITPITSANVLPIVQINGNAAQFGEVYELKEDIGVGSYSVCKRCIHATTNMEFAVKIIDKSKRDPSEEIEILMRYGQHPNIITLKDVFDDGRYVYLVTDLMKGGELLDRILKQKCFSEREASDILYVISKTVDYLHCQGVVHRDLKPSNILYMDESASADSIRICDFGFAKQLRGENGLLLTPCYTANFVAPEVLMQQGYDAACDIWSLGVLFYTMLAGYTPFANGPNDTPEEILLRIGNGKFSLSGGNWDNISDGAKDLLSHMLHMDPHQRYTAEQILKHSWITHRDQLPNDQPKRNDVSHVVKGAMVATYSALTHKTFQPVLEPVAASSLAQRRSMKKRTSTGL
Sequence of RSK3 (Q15349 whole entry): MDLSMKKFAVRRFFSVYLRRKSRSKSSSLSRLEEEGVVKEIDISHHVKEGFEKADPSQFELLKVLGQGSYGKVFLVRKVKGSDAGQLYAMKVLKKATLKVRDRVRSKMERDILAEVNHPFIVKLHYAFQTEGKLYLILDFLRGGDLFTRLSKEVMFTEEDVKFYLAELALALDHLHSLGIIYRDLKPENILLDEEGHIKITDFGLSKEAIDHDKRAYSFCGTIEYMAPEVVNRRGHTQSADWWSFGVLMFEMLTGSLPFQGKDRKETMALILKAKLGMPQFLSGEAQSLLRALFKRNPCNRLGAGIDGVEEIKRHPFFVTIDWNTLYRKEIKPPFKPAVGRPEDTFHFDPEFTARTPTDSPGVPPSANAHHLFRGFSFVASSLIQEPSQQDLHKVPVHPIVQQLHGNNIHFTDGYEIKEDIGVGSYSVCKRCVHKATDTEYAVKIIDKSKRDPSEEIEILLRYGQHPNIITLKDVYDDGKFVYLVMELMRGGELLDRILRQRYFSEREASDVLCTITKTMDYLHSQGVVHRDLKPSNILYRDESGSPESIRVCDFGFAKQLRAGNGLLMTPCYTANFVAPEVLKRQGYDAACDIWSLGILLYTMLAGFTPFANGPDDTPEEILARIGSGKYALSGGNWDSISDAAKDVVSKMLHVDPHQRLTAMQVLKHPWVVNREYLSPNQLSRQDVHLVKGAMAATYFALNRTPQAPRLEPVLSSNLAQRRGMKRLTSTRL

Take PMD-026: the IC50 against RSK3 came to 0.9 nM; on RSK4, 2 nM; in assay [1], 2 nM; against RSK2, 0.7 nM.
